Like-named read-outs stand apart in the source and are kept apart here.
System: NanoLuc-PEST expressing L. mexicana axenic amastigotes
Experiment: microbe, parasite or virus in culture
Assay type: cell-based
Conditions: for EC50: hit compounds from the axenic amastigote screen, S3 Table, read-out: EC50, Axenic Amastigotes; for viability at 2 µM / viability at 10 µM: Leishmania mexicana, read-out: Relative Bioluminescence (%)
[1] = 2 µM compound, 72 hours, relative to DMSO only control, n = 4
[2] = 10 µM compound, 72 hours, relative to DMSO only control, n = 4

SMILES	Relative Bioluminescence (%) [1]	Relative Bioluminescence (%) [2]	also measured
Cc1ccc2c(c1C)NC(=O)C21NN=C(c2ccccc2)S1 (stereo not shown) [MMV019189]	-1.73%	-1.42%	EC50: 320 nM
Cc1cccc(C(=O)Nc2ccnc(N(C)C3CCN(CC(C)C)CC3)c2)c1 [MMV024829]	74.80%	69.82%	–
O=C(Nc1ccc(F)c(-c2nc3ncc(-c4ccccc4)cc3[nH]2)c1)N1CCCC1 [MMV688372]	17.89%	6.87%	–
COc1cccc(CC(=O)N2CCC(n3c(C)nc4ccc(F)cc43)CC2)c1 [MMV020081]	98.78%	73.47%	–
Cc1nn(C)cc1C(C)Nc1nncc(-c2ccc(C(F)(F)F)cc2)n1 (stereo not shown) [MMV019993]	96.83%	70.73%	–
COc1ccc(-c2cnc3ccc(NCc4ccc(S(N)(=O)=O)cc4)nn23)cn1 [MMV010545]	70.73%	68.48%	–
Cc1ncc(-c2ccnc(Nc3ccc(S(C)(=O)=O)cc3)n2)n1C(C)C [MMV676604]	81.35%	33.57%	–
NC(=O)c1cc(-c2ccsc2)ccc1OCCOc1ccccc1 [MMV687138]	56.61%	48.25%	–
C[C@H]1COC2(CCN(c3nc(=O)c4cc(C(F)(F)F)cc([N+](=O)[O-])c4s3)CC2)O1 [MMV676603]	83.14%	75.26%	–
c1ccc(Oc2ccc(-c3cc(C4CCOCC4)[nH]n3)cc2)cc1 [MMV687762]	41.49%	31.40%	–
CN1CCC(NCc2cccc(-c3ccc(S(=O)(=O)NCc4ccccc4)cc3)c2)CC1 [MMV022029]	99.81%	101.70%	–
O=C(Cn1ccnc1[N+](=O)[O-])NCc1ccccc1 [MMV688773, Benznidazole, reference compound]	–	–	viability at 2 µM [1]: 110%; viability at 10 µM [2]: 132%
COc1cccc(-c2nc3c(N4CCCC4)cccc3n2CC2CCCN2)n1 (stereo not shown) [MMV687703]	48.25%	76.96%	–
O=C(C1CCN(c2nnc(-n3cccc3)s2)CC1)N1CCC(Cc2ccccc2)CC1 [MMV676478]	93.56%	56.18%	–
CC(C)(C)n1nc(-c2ccccc2)c2c(N)ncnc21 [MMV688548]	78.88%	77.20%	–
CC1(C)Cc2c(c(N3CCOCC3)nc3snc(Br)c23)CO1 [MMV687794]	97.30%	72.05%	–
CC1CS(=O)(=O)CCN1/N=C/c1ccc([N+](=O)[O-])o1 (stereo not shown) [MMV001499, Nifurtimox, reference compound]	–	–	viability at 2 µM (72 h): 7.65%; viability at 10 µM (72 h): -2.17%
CC(=O)Nc1ccc(NC(=O)c2cc(-c3cc(Cl)ccc3O)n[nH]2)cc1 [MMV676380]	84.54%	97.79%	–
CC(C)(C)C(O)C(Oc1ccc(-c2ccccc2)cc1)n1cncn1 (stereo not shown) [MMV688942, Bitertanol]	–	–	viability at 2 µM [1]: 21%; viability at 10 µM [2]: 15.4%
CCOc1ccccc1C(=O)Nc1cccc(-c2nc3ncccn3c2C)c1 [MMV019790]	85.04%	56.75%	–
O=C1[C@@H](Oc2ccccc2)[C@@H](c2ccc(Cl)cc2)N1CCn1cnc2c(NCc3ccccc3)ncnc21 [MMV688352]	66.17%	8.52%	–
COC(=O)c1c(NC(=O)c2cc3ccccc3oc2=O)sc2c1CCN(Cc1ccccc1)C2 [MMV676480]	96.73%	61.83%	–

SMILES	Relative Bioluminescence (%) [1]	Relative Bioluminescence (%) [2]	also measured
CCC(NC(=O)c1ccccc1NC(=O)c1ccc(C)cc1)C(=O)OC (stereo not shown) [MMV019551]	70.29%	42.20%	–
CNc1nnc(Sc2cnn(-c3ccccc3)c(=O)c2Cl)s1 [MMV688763]	-1.63%	-0.71%	EC50: 380 nM
CN1CCN(c2nccc3nc(-c4ccc(F)c(F)c4)[nH]c23)CC1 [MMV676260]	69.43%	85.22%	–
Cc1cnc(N2CCN[C@@H](Cc3ccccc3)C2)nc1Oc1ccc(-n2ccnc2)cc1 [MMV687765]	69.43%	74.28%	–
Cc1cc(C(=O)Nc2cnn(Cc3ccc(Cl)cc3Cl)c2)no1 [MMV009054]	106.08%	100.62%	–
CC(C)(C)n1nc(Cc2cccc3ccccc23)c2c(N)ncnc21 [MMV676599]	80.19%	31.83%	–
COc1cc(C(F)(F)F)nc2ccc(C)c(N)c12 [MMV047015]	86.47%	82.90%	–
CS(=O)(=O)c1cccc(-c2cnc3[nH]cc(-c4ccc(CCC(=O)O)cc4)c3c2)c1 [MMV026020]	94.58%	94.82%	–
CS(=O)(=O)c1ccc(C(=O)N(CC2CCCO2)c2nc3ccccc3s2)cc1[N+](=O)[O-] (stereo not shown) [MMV688761]	39.52%	-1.44%	–
Clc1ccc(-n2cc(COc3ccnc4ccccc34)nn2)cc1 [MMV675994]	74.96%	81.16%	–
COc1cncc(-c2cncc(N3CCN(c4ccncc4)CC3)n2)c1 [MMV085071]	93.07%	82.11%	–
Cc1nc(-c2cccc(NCc3ccccc3)c2)[nH]c1C [MMV023227]	80.48%	64.23%	–
Cc1cc(OCC(=O)Nc2ccc(C(C)C)cc2)n(C)c(=O)c1C#N [MMV1198433]	82.52%	91.16%	–
O=C(NCCc1ccccc1)c1cc(-c2cccnc2)cnc1NCC1CC1 [MMV026490]	92.31%	60.31%	–
CC(Oc1cccc(Cl)c1)C(=O)Nc1ccc2oc(-c3ccncc3)nc2c1 (stereo not shown) [MMV688472]	83.48%	74.96%	–
Cn1ncc2c(N3CCOCC3)nc(NCCc3c[nH]c4ccccc34)nc21 [MMV676382]	73.92%	64.75%	–
c1ccc(Oc2ccc(-c3cc(CN4CCOCC4)[nH]n3)cc2)cc1 [MMV676161]	108.65%	116.07%	–
CN1CCC[C@@H]1CCO[C@](C)(c1ccccc1)c1ccc(Cl)cc1 [MMV637229, Clemastine, reference compound]	–	–	viability at 2 µM [1]: 47.3%; viability at 10 µM [2]: 11.2%
COc1cccc(OCC(=O)c2ccc(Br)cc2)c1 [MMV676379]	81.42%	79.42%	–
C[C@H]1c2cccc(O)c2C(=O)C2=C(O)[C@]3(O)C(=O)C(C(N)=O)=C(O)[C@@H](N(C)C)[C@@H]3[C@@H](O)[C@@H]21 [MMV000011, Doxycycline, reference compound]	–	–	viability at 2 µM [1]: 95%; viability at 10 µM [2]: 94.7%
O=C(c1cc2ccccc2o1)N1CCN(Cc2ccc3c(c2)OCO3)CC1 [MMV676520]	56.86%	68.82%	–
